# Patent US11447500B2, “Thienopyridine derivatives and pharmaceutical composition comprising same” (WELLMARKER BIO CO., LTD., priority 2018, dated 2022)
# pIC50: −log10 of the molar value. Structures can show the parent of a compound that is named as a salt.
# Biological target: T1, RON kinase (Homo sapiens, UniProt Q04912)
# T1 construct: purchased Carna Bioscience
# Assay: RON kinase enzyme inhibitory activity, FRET (TR-FRET) technique
# Assay type: biochemical
# Details: 60 min reaction
# Procedure: The enzyme inhibitory activity (IC50) of the thienopyridine derivative was measured using FRET (fluorescence resonance energy transfer) technique. RON kinase (Carna Bioscience) was diluted with a kinase assay buffer (50 mM HEPES pH 7.5, 1 mM EGTA, 10 mM MgCl2, 2 mM DTT, and 0.01% Tween-20) to a concentration of 2× (0.4 nM) the final reaction concentration and the dilution was added to a 384-well plate at 5 μL/well. As sample compounds, the compounds synthesized in the examples of the present invention and the compounds of the comparative examples were used. The sample compounds were respectively dissolved in 100% DMSO to obtain 1 mM stock solutions, which were then subjected to eight 10-fold serial dilutions. The sample compounds were diluted with the kinase assay buffer to a concentration of 4× the final reaction concentration, and the dilutions were added to the 384-well plate at 2.5 μL/well. The plate was incubated at room temperature for 15 minutes. Next, 0.25 M ATP solution (Sigma Aldrich) was diluted with the kinase reaction buffer to a concentration of 4× (60 μM) the final reaction concentration, and a tyrosine peptide substrate (Perkin-Elmer) was diluted therein to a concentration of 4× (400 nM) the final reaction concentration. The dilution was added to the 384-well plate at 2.5 μL/well. Then, the 384-well plate was incubated at room temperature and the reaction was allowed to proceed for 60 minutes. After 60 minutes, EDTA (Sigma Aldrich) was diluted with TR-FRET detection buffer (Perkin-Elmer) to a concentration of 4× (40 mM) the final reaction concentration. A europium-labeled anti-phosphotyrosine antibody (Perkin-Elmer) was diluted in the above EDTA dilution to a concentration of 4× (8 nM) the final reaction concentration to prepare a stop solution of the RON kinase reaction. The stop solution was added to the 384-well plate at 10 μL/well to terminate the reaction, and the plate was incubated at room temperature for 60 minutes. Thereafter, the plate was read on Victor X5 plate reader (Perkin-Elmer). At this time, the excitation wavelength was 340 nm and the emission wavelengths were 620 nm and 665 nm. The IC50 values of the sample compounds were determined using GraphPad Prism™ 5 by expressing the emission energy at 665 nm as a function of the sample compound concentration.
# T1 sequence (Q04912 25-1400): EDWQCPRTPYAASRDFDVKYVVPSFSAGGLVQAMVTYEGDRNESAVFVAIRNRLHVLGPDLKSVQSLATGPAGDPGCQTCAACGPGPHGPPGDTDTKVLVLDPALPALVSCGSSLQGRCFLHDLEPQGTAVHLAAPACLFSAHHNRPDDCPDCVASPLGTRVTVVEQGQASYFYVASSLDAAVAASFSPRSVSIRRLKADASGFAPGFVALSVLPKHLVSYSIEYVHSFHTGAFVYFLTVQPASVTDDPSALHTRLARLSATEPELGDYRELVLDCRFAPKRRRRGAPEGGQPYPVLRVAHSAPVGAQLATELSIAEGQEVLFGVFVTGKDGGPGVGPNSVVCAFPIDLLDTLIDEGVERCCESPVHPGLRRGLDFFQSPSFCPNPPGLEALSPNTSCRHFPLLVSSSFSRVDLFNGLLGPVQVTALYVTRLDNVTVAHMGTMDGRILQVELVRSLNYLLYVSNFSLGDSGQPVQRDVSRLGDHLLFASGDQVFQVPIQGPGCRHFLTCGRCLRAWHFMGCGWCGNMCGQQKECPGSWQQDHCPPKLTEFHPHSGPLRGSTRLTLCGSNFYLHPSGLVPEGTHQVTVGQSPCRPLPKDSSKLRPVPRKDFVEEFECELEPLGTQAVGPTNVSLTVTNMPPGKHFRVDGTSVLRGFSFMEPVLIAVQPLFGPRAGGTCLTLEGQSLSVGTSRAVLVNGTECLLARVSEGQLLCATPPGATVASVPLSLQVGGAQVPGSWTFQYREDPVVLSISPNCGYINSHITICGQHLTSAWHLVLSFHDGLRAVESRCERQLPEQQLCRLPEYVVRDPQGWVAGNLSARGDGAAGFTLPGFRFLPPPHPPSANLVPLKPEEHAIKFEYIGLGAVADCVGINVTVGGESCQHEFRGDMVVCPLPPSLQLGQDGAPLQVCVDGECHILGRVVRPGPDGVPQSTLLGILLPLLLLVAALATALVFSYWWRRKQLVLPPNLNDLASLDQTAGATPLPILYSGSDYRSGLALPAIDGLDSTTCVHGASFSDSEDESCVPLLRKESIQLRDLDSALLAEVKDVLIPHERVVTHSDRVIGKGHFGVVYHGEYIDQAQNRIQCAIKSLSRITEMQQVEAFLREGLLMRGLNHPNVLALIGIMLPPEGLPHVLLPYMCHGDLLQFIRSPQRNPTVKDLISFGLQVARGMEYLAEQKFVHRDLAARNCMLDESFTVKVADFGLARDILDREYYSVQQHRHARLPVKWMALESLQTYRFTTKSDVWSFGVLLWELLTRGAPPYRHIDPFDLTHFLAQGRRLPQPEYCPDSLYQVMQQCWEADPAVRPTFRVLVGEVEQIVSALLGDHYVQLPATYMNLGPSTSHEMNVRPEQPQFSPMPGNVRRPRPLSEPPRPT
row,pIC50,Structure (SMILES)
1,8.94,"COCCNCc1ccc(-c2cc3nccc(Oc4ccc(NC(=O)c5cccn(-c6ccccc6)c5=O)cc4F)c3s2)nc1 [Example 5, N-(3-fluoro-4-{[2-(5-{[(2-methoxyethyl)amino]methyl}pyridin-2-yl)thieno[3,2-b]pyridin-7-yl]oxy}phenyl)-2-oxo-1-phenyl-1,2-dihydropyridine-3-carboxamide Hydrochloride]"
2,7.66,"CCOc1ccn(-c2ccc(F)cc2)c(=O)c1C(=O)Nc1ccc(Oc2ccnc3cc(-c4ccc(CN(CCOC)C(=O)OC(C)(C)C)cn4)sc23)c(F)c1 [Example 6, t-butyl {[6-(7-{4-[4-ethoxy-1-(4-fluorophenyl)-2-oxo-1,2-dihydropyridine-3-carboxamido]-2-fluorophenoxy}thieno[3,2-b]pyridin-2-yl)pyridin-3-yl]methyl}(2-methoxyethyl)carbamate]"
3,8.25,"COCCNCc1ccc(-c2cc3nccc(Oc4ccc(NC(=O)c5c(OC)ccn(-c6ccc(F)cc6)c5=O)c(Cl)c4)c3s2)nc1 [Example 10, N-(2-chlor-4-{[-2-(5-{[(2-methoxyethyl)amino]methyl}pyridin-2-yl)thieno[3,2-b]pyridin-7-yl]oxy}phenyl)-1-(4-fluorophenyl)-4-methoxy-2-oxo-1,2-dihydropyridine-3-carboxamide Hydrochloride]"
4,8.68,"CCOc1ccn(-c2ccc(C(F)(F)F)cc2)c(=O)c1C(=O)Nc1ccc(Oc2ccnc3cc(-c4ccc(CNCCOC)cn4)sc23)c(F)c1 [Example 12, 4-ethoxy-N-(3-fluoro-4-{[2-(5-{[(2-methoxyethyl)amino]methyl}pyridin-2-yl)thieno[3,2-b]pyridin-7-yl]oxy}phenyl)-2-oxo-1-(4-(trifluoromethyl)phenyl)-1,2-dihydropyridine-3-carboxamide Hydrochloride]"
5,8.94,"COCCNCc1ccc(-c2cc3nccc(Oc4ccc(NC(=O)c5c(OC)ccn(-c6ccc(Cl)cc6)c5=O)cc4F)c3s2)nc1 [Example 13, 1-(4-chlorophenyl)-N-(3-fluoro-4-{[2-(5-{[(2-methoxyethyl)amino]methyl}pyridin-2-yl)thieno[3,2-b]pyridin-7-yl]oxy}phenyl)-4-methoxy-2-oxo-1,2-dihydropyridine-3-carboxamide Hydrochloride]"
6,8.53,"CCOc1ccn(-c2ccc(OC)cc2)c(=O)c1C(=O)Nc1ccc(Oc2ccnc3cc(-c4ccc(CNCCOC)cn4)sc23)c(F)c1 [Example 15, 4-ethoxy-N-(3-fluoro-4-{[2-(5-{[(2-methoxyethyl)amino]methyl}pyridin-2-yl)thieno[3,2-b]pyridin-7-yl]oxy}phenyl)-1-(4-methoxyphenyl)-2-oxo-1,2-dihydropyridine-3-carboxamide Hydrochloride]"
7,8.46,"CCOc1ccn(-c2cccc(OC)c2)c(=O)c1C(=O)Nc1ccc(Oc2ccnc3cc(-c4ccc(CNCCOC)cn4)sc23)c(F)c1 [Example 16, 4-ethoxy-N-(3-fluoro-4-{[2-(5-{[(2-methoxyethyl)amino]methyl}pyridin-2-yl)thieno[3,2-b]pyridin-7-yl]oxy}phenyl)-1-(3-methoxyphenyl)-2-oxo-1,2-dihydropyridine-3-carboxamide Hydrochloride]"
8,8.80,"COCCNCc1ccc(-c2cc3nccc(Oc4ccc(NC(=O)c5c(C)cnn(-c6ccc(F)cc6)c5=O)cc4F)c3s2)nc1 [Example 17, N-(3-fluoro-4-{[2-(5-{[(2-methoxyethyl)amino]methyl}pyridin-2-yl)thieno[3,2-b]pyridin-7-yl]oxy}phenyl)-2-(4-fluorophenyl)-5-methyl-3-oxo-2,3-dihydropyridazine-4-carboxamide Hydrochloride]"
9,8.44,"COCCNCc1ccc(-c2cc3nccc(Oc4ccc(NC(=O)c5ccnn(-c6ccccc6)c5=O)cc4F)c3s2)nc1 [Example 19, N-(3-fluoro-4-{[2-(5-{[(2-methoxyethyl)amino]methyl}pyridin-2-yl)thieno[3,2-b]pyridin-7-yl]oxy}phenyl)-3-oxo-2-phenyl-2,3-dihydropyridazine-4-carboxamide Hydrochloride]"
10,8.09,"COCCNCc1ccc(-c2cc3nccc(Oc4ccc(NC(=O)c5cc(Br)cn(-c6ccc(F)cc6)c5=O)cc4F)c3s2)nc1 [Example 23, 5-bromo-N-(3-fluoro-4-{[2-(5-1 [(2-methoxyethyl)amino]methyl}pyridin-2-yl)thieno[3,2-b]pyridin-7-yl]oxy}phenyl)-1-(4-fluorophenyl)-2-oxo-1,2-dihydropyridine-3-carboxamide Hydrochloride]"
11,7.62,"COCCNCc1ccc(-c2cc3nccc(Oc4ccc(NC(=O)c5cc(Cl)cn(-c6ccc(F)cc6)c5=O)cc4F)c3s2)nc1 [Example 24, 5-chloro-N-(3-fluoro-4-{[2-(5-{[(2-methoxyethyl)amino]methyl}pyridin-2-yl)thieno[3,2-b]pyridin-7-yl]oxy}phenyl)-1-(4-fluorophenyl)-2-oxo-1,2-dihydropyridine-3-carboxamide Hydrochloride]"
12,8.43,"CCOc1ccn(-c2ccc(F)cc2)c(=O)c1C(=O)Nc1ccc(Oc2ccnc3cc(-c4ccc(CNCCOC)cn4)sc23)cc1Cl [Example 26, N-(2-chloro-4-{[2-(5-{[(2-methoxyethyl)amino]methyl}pyridin-2-yl)thieno[3,2-b]pyridin-7-yl]oxy}phenyl)-4-ethoxy-1-(4-fluorophenyl)-2-oxo-1,2-dihydropyridine-3-carboxamide Hydrochloride]"
13,8.71,"COCCNCc1ccc(-c2cc3nccc(Oc4ccc(NC(=O)c5cc(C)c(C)n(-c6ccc(F)cc6)c5=O)cc4F)c3s2)nc1 [Example 27, N-(3-fluoro-4-([2-(5-{[(2-methoxyethyl)amino)methyl]pyridin-2-yl}thieno[3,2-b]pyridin-7-yl)oxy]phenyl}-1-(4-fluorophenyl)-5,6-dimethyl-2-oxo-1,2-dihydropyridine-3-carboxamide Hydrochloride]"
14,8.92,"COCCNCc1ccc(-c2cc3nccc(Oc4ccc(NC(=O)c5cc(C)cn(-c6ccc(F)cc6)c5=O)cc4F)c3s2)nc1 [Example 29, N-(3-fluoro-4-{[-2-(5-{[(2-methoxyethyl)amino]methyl}pyridin-2-yl)thieno[3,2-b]pyridin-7-yl]oxy}phenyl)-1-(4-fluorophenyl)-5-methyl-2-oxo-1,2-dihydropyridine-3-carboxamide Hydrochloride]"
15,8.59,"CCOc1ccn(-c2ccc(Cl)cc2)c(=O)c1C(=O)Nc1ccc(Oc2ccnc3cc(-c4ccc(CN5CCOCC5)cn4)sc23)c(F)c1 [Example 35, 1-(4-chlorophenyl)-4-ethoxy-N-[3-fluoro-4-({2-[5-(morpholinomethyl)pyridin-2-yl]thieno[3,2-b]pyridin-7-yl}oxy)phenyl]-2-oxo-1,2-dihydropyridine-3-carboxamide Hydrochloride]"
16,8.64,"CCOc1ccn(-c2ccc(F)cc2)c(=O)c1C(=O)Nc1ccc(Oc2ccnc3cc(-c4ccc(CN5CCOCC5)cn4)sc23)c(Cl)c1 [Example 36, N-[3-chloro-4-({2-[5-(morpholinomethyl)pyridin-2-yl]thieno[3,2-b]pyridin-7-yl}oxy)phenyl]-4-ethoxy-1-(4-fluorophenyl)-2-oxo-1,2-dihydropyridine-3-carboxamide Hydrochloride]"
17,7.99,"CCOc1ccn(-c2ccc(F)cc2)c(=O)c1C(=O)Nc1ccc(Oc2ccnc3cc(-c4ccc(CN5CCOCC5)cn4)sc23)cc1Cl [Example 37, N-[2-chloro-4-({2-[5-(morpholinomethyl)pyridin-2-yl]thieno[3,2-b]pyridin-7-yl}oxy)phenyl]-4-ethoxy-1-(4-fluorophenyl)-2-oxo-1,2-dihydropyridine-3-carboxamide Hydrochloride]"

# System: RON-activated KM12C colon cancer cell line
# Assay: Cell killing efficacy, trypan blue exclusion assay, KM12C
# Assay type: cell-based
# Details: 1 μM, 48 hours
# Procedure: (§1) Two colon cancer cell lines, RON-activated KM12C (80015, KCLB, MEM+10% FBS) and RON-mutated (Δ160) HT-29 (30038, KCLB, RPMI+10% FBS) were prepared in 6-well plates at 5×10^4 cells/well, respectively. After 24 hours, while freshly changing the medium, the sample compounds were added to the wells at a concentration of 1 μM or 5 μM and the plates were allowed to stand for 48 hours.
# (§2) As the sample compounds, the compounds synthesized in the examples of the present invention and the compounds of the comparative examples were used.
# (§3) After 48 hours, the cell suspensions were collected and centrifuged (1,500 rpm, 4 min.) to obtain the cells, and live cells and dead cells were quantitated (n=2) through a trypan blue (15250-061, Gibco) exclusion assay. The statistical analysis was performed using Excel™ T-test from Microsoft.
# (§4) The cell death rates of the compounds of Examples and Comparative Examples were respectively measured and the results are shown in Table 4 as relative ratios to Comparative Example 1.
row,Structure (SMILES),Cell death rate (Relative to Comp. Ex. 1)
1,CCOc1ccn(-c2ccccc2)c(=O)c1C(=O)Nc1ccc(Oc2ccnc3cc(-c4ccc(CN5CCN(C)CC5)cn4)sc23)c(F)c1.Cl [Example 34],x 2.07

# Same assay, conditions: 5 μM, 48 hours
row,Structure (SMILES),Cell death rate (Relative to Comp. Ex. 1)
1,CCOc1ccn(-c2ccccc2)c(=O)c1C(=O)Nc1ccc(Oc2ccnc3cc(-c4ccc(CN5CCN(C)CC5)cn4)sc23)c(F)c1.Cl [Example 34],x 1.11

# System: RON-mutated (Δ160) HT-29 colon cancer cell line
# Assay: Cell killing efficacy, trypan blue exclusion assay, HT-29
# Assay type: cell-based
# Details: HT29 cell, 1 μM, 48 hours
# Procedure: as §1, §2, §3, §4
row,Structure (SMILES),Cell death rate (Relative to Comp. Ex. 1)
1,CCOc1ccn(-c2ccccc2)c(=O)c1C(=O)Nc1ccc(Oc2ccnc3cc(-c4ccc(CN5CCN(C)CC5)cn4)sc23)c(F)c1.Cl [Example 34],x 2.12

# Same assay, conditions: HT29 cell, 5 μM, 48 hours
row,Structure (SMILES),Cell death rate (Relative to Comp. Ex. 1)
1,CCOc1ccn(-c2ccccc2)c(=O)c1C(=O)Nc1ccc(Oc2ccnc3cc(-c4ccc(CN5CCN(C)CC5)cn4)sc23)c(F)c1.Cl [Example 34],x 1.66
